Paper PMC9324382 (Viruses, 2022)

Biological target: T1, SARS-CoV-2 M^pro (main protease) (Severe acute respiratory syndrome coronavirus 2, UniProt P0DTD1)
T1 construct: gene rep
Assay: FRET peptide cleavage assay, Morrison fit
Type: biochemical

In the case of O=c1c(O)c(-c2ccc(O)c(O)c2)oc2cc(O)ccc12 [Fisetin], the Ki is reported as 0.0418 ± 0.0021 µM.
